The text below walks through data of publication PMC9982066, “Inhibition of Ehrlichia chaffeensis infection by cell-permeable macrocyclic peptides that bind type IV secretion effector Etf-1” (PNAS Nexus, 2023).

One data set has as its target Etf-1 (Ehrlichia chaffeensis, UniProt Q2GG12). Put plainly: immunofluorescence of native Etf-1 localization in E. chaffeensis-infected RF/6A cells. Conditions: 2 days. The data set is classed as cell-based. The protocol: Fig. 7. […] RF/6A cells were seeded onto a coverglass in a 12-well plate for 1 h, and infected with E. chaffeensis (Ech) at ∼30 MOI. […] Cells were fixed in 4% PFA and labeled with rabbit anti-Etf-1 IgG and AF488-conjugated goat anti-rabbit secondary antibody in PGS for 1 h each at RT. DAPI was used to label both host-cell nuclei and Ehrlichia DNAs (pseudocolored in green), and E. chaffeensis organisms were shown as green-colored, round to pleomorphic cocci (arrowhead in panel B) that further clustered as spherical morulae. Thin arrows, E. chaffeensis-containing inclusion; open arrows, filamentous-shaped mitochondria. DeltaVision microscope. […] (D) Percentage of E. chaffeensis inclusions colocalized with Etf-1 were quantified by counting ∼20 cells per group from three independent experiments.
For mitochondria localization analysis, RF/6A cells were seeded onto a cover glass in a 12-well plate for 3 h, then infected with E. chaffeensis at ∼30 MOI. […] Host-cell and Ehrlichial DNAs were stained with 300 nM DAPI, and fluorescence with differential interference contrast images were observed and captured with a DeltaVision deconvolution microscope (Applied Precision, Issaquah, WA, USA). Percentages of Etf-1 protein colocalization with macrocyclic peptides or E. chaffeensis inclusions were quantified by counting 10–20 cells per group from three independent experiments.

Another data set relates to THP-1 cells. Put plainly: CellTiter-Glo luminescent cell viability assay. Particulars: 2-day treatment.
Data set [1] in a line: serum stability assay (UPLC). It counts as in vitro ADME. Particulars: 25% (v/v) in DPBS; 25% human serum, 37°C, after 22 h; read-out: degradation. On the procedure: In comparison, the linear peptide Tat (cell-permeable peptide of HIV) was completely degraded within the first 120 min of incubation (Fig. 4B).
Human serum was diluted to 25% (v/v) in sterile DPBS and equilibrated at 37°C for 15 min. Peptides were added to the diluted serum to a final concentration of 20 μM and incubated at 37°C with gentle mixing. At designated time points, 30 μL aliquots were withdrawn and mixed with 30 μL of 15% trichloroacetic acid in MeOH (w/v) and 30 μL of MeCN and stored at 4°C overnight to completely precipitate the serum proteins. Next, each aliquot was centrifuged (15,000g, 5 min, 4°C) and 14 μL of the supernatant was injected in an UPLC equipped with an analytical Waters Acquity UPLC BEH C18 column (1.7 μm, 2.1 mm I.D., 100 mm length) and an inline UV-Vis detector and a single quadrupole mass detector. The column was eluted with a linear gradient of 20–50% MeCN in ddH2O containing 0.1% TFA. A UV/Vis detector at 214 nm and the mass spec quantifying the ion counts corresponding to the [M + 3H]^3+ ion of the analytes were used to analyze the samples. The area under the peak of interest was obtained by integration, normalized to that of the peptide at t = 0, and plotted as a function of the incubation time to determine the serum half-life of the peptide.

Molecules are shown by their SMILES. Starred links: 1 amine or outer side, 2 acyl side, 3 side chain; linkers in the order of their positions; H or OH if unused. Positions of bridges follow the written chain, without caps; N, C: chain ends. Non-standard residues stand in square brackets, D forms with d. Residues, ends and D or L forms follow the SMILES beside them. Trimesoyl = O=C(c1cc(C(=O)[*:2])cc(C(=O)[*:3])c1)[*:1]; d2Nal = N[C@H](Cc1ccc2ccccc2c1)C(=O)O; Dap = NC[C@H](N)C(=O)O Some results are limits rather than exact numbers.

Etf-1, sequence (Q2GG12 entry or part of it): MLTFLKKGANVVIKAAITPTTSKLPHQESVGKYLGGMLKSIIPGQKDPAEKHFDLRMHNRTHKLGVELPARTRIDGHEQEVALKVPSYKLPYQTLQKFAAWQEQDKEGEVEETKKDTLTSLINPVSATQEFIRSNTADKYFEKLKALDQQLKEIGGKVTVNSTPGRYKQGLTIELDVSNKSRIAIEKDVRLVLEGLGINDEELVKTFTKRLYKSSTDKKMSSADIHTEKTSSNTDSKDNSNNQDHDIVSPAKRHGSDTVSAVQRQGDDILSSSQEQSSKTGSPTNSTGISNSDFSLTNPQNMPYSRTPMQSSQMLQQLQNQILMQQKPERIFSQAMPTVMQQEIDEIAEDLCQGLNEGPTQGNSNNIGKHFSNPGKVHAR

In the case of `CC(C)C[C@H]1NC(=O)[C@H](CO)NC(=O)[C@H]2CCCN2C(=O)[C@H](CCC(N)=O)NC(=O)[C@H](Cc2c[nH]cn2)NC(=O)[C@H](Cc2ccc(O)cc2)NC(=O)c2cc3cc(c2)C(=O)NC[C@H](NC1=O)C(=O)N[C@@H](Cc1ccccc1)C(=O)N[C@H](Cc1ccc2ccccc2c1)C(=O)N[C@H](CCCNC(=N)N)C(=O)N[C@@H](CCCNC(=N)N)C(=O)N[C@H](CCCNC(=N)N)C(=O)N[C@@H](CCCNC(=N)N)C(=O)N[C@H](C(N)=O)CNC3=O` [Peptide B7, TMA-Tyr-His-Gln-pro-Ser-leu-Dap-Phe-nal-arg-Arg-arg-Arg-Dap] (YHQ[dP]S[dL][Dap]F[d2Nal][dR]R[dR]R[Dap]-NH2; linker N-7-14 via Trimesoyl), the “localization of Etf-1 to E. chaffeensis inclusions” value at Etf-1 (10 μM from 3 h pi) is “significantly inhibited the localization”. Moreover, the “effect on mitochondrial localization of native Etf-1” value on Etf-1 (10 μM) was “did not affect”. For the same compound, the cell viability result with THP-1 cells (20 μM) is listed as “slightly reduced the cell viability”. Further, in the data set on THP-1 cells (up to 10 μM), the cytotoxicity result was “no cytotoxicity”. The metabolised at 22 h, 20 µM in data set [1] was < 20%.
